# Tests used:
# Assay in all cases: relative viability (nuclei count vs DMSO), 5 days (fraction); higher = more cells survive
# [1] = compound: CCc1c2c(nc3ccc(OC(=O)N4CCC(N5CCCCC5)CC4)cc13)-c1cc3c(c(=O)n1C2)COC(=O)[C@]3(O)CC [Irinotecan] + COc1cccc2cc(-c3nc([C@H]4CC[C@H](C(=O)O)CC4)n4ncnc(N)c34)[nH]c12 [OSI-027] (partner 0.5 µM)
# Procedure, shortened: (§1)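 Values are medians from duplicate plates. Each reflects relative viability, defined as the nuclei count of treated wells over that of vehicle wells. Lung cancer cell lines in 1536-well plates were pin-tool dosed one day after seeding with one drug alone or with a fixed anchor-drug dose plus five library-drug doses (not always all listed) in √10 steps, then fixed, stained and imaged at 4× after 5 days.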
# [2] = compound: Cn1cc(-c2cnc3ccc4ccc(CS(=O)(=O)NCc5ccccn5)cc4c(=O)c3c2)cn1 [MK-8033] + CS(=O)(=O)N1CCN(Cc2cc3nc(-c4cccc5[nH]ncc45)nc(N4CCOCC4)c3s2)CC1 [Pictilisib] (partner 1 µM)
# Procedure, shortened: as §1
# [3] = compound: Cn1cc(-c2cnc3ccc4ccc(CS(=O)(=O)NCc5ccccn5)cc4c(=O)c3c2)cn1 [MK-8033] + CC(=O)c1c(C)c2cnc(Nc3ccc(N4CCNCC4)cn3)nc2n(C2CCCC2)c1=O [Palbociclib] (partner 0.5 µM)
# Procedure, shortened: as §1
# [4] = compound: Cn1cc(-c2cnc3ccc4ccc(CS(=O)(=O)NCc5ccccn5)cc4c(=O)c3c2)cn1 [MK-8033] + COc1cc2c(Oc3ccc(NC(=O)C4(C(=O)Nc5ccc(F)cc5)CC4)cc3F)ccnc2cc1OCCCN1CCOCC1 [Foretinib] (partner 0.25 µM)
# Procedure, shortened: as §1
Cell Line,relative viability ([1]; first compound 0.6325 µM),relative viability ([1]; first compound 2 µM),relative viability ([1]; first compound 6.325 µM),relative viability ([1]; first compound 20 µM),relative viability ([2]; first compound 0.02 µM),relative viability ([2]; first compound 0.06325 µM),relative viability ([2]; first compound 0.2 µM),relative viability ([2]; first compound 0.6325 µM),relative viability ([2]; first compound 2 µM),relative viability ([3]; first compound 0.02 µM),relative viability ([3]; first compound 0.06325 µM),relative viability ([3]; first compound 0.2 µM),relative viability ([3]; first compound 0.6325 µM),relative viability ([3]; first compound 2 µM),relative viability ([4]; first compound 0.02 µM),relative viability ([4]; first compound 0.06325 µM),relative viability ([4]; first compound 0.2 µM),relative viability ([4]; first compound 0.6325 µM),relative viability ([4]; first compound 2 µM)
HCC-366,0.144,0.714,0.0844,0.0682,0.151,0.0933,0.228,0.138,0.142,0.417,0.343,0.355,0.367,0.351,0.965,0.864,0.929,0.965,0.962
HCC-827,0.639,0.64,0.224,0.216,1.05,0.605,0.902,1.06,1.04,0.49,,0.471,0.49,0.545,1.1,,0.989,0.967,1.03
HOP-62,0.48,0.768,0.224,0.22,0.626,0.593,0.587,0.694,0.646,0.469,0.41,0.425,0.496,0.446,1.07,1.07,1.03,1.06,1.18
IA-LM,,,,,0.356,0.273,0.293,0.286,0.289,,,,,,0.989,1.03,1.17,1.15,1.12
LC-2-ad,0.384,0.606,0.372,0.148,0.43,0.461,0.453,0.572,0.486,0.493,0.453,0.491,0.499,0.488,0.94,0.867,,0.981,0.944
LCLC-97TM1,0.224,0.207,0.108,0.133,0.187,0.148,0.199,0.215,0.19,0.243,0.221,,0.232,0.216,0.9,0.924,0.925,0.951,0.969
LCLC-103H,0.483,0.496,0.339,0.347,0.616,0.589,0.593,0.737,0.638,0.514,0.51,0.47,0.295,0.491,0.747,0.707,0.696,0.84,0.806
LK-2,0.162,0.2,0.237,0.253,0.629,0.452,0.535,0.621,0.606,0.623,0.528,0.686,0.885,0.502,1.05,,1.13,1.42,1.08
LOU-NH91,0.688,0.688,0.386,0.365,0.531,,0.498,0.548,0.506,0.495,0.523,0.512,0.531,0.53,0.94,0.583,0.906,0.878,0.9
LU99A,0.202,0.243,0.181,0.242,0.331,0.275,0.318,0.29,0.32,0.414,0.343,0.398,0.409,0.39,0.903,0.716,0.834,0.841,0.743
LXF-289,0.472,0.797,0.421,0.24,0.789,0.64,0.721,0.734,0.823,0.612,0.579,0.61,0.597,0.596,0.965,0.934,0.938,1.04,0.965
NCI-H522,1.07,0.643,0.645,0.569,,,,,,0.968,0.96,1,0.968,1.18,,,,,
NCI-H596,0.579,0.927,0.728,0.581,0.352,0.319,0.379,0.384,0.397,,,,,,0.763,0.733,0.957,0.477,0.886
NCI-H1299,,,,,0.759,0.862,0.748,0.799,0.617,,,,,,1.09,1.08,1.02,1.13,1.06
NCI-H1563,0.704,0.843,0.865,0.589,0.617,0.63,0.648,0.659,0.705,,,,,,0.899,0.927,0.903,0.97,0.981
NCI-H1623,0.415,0.415,0.303,0.294,,,,,,,,,,,0.904,0.729,0.889,0.812,0.943
NCI-H1648,0.238,0.242,0.255,0.268,,,,,,0.243,,0.296,0.299,0.258,,,,,
NCI-H1703,,,,,0.238,0.244,0.255,0.223,0.248,,,,,,0.316,0.393,0.351,0.32,0.337
NCI-H1792,0.7,0.617,0.456,0.231,0.256,0.188,0.346,0.269,0.212,0.637,0.63,0.557,0.606,0.615,,,,,
NCI-H2342,0.58,0.551,0.607,0.439,,,,,,0.487,0.548,0.623,0.492,0.526,1.04,1.08,0.976,0.947,1.07
SW 900,0.298,0.632,0.4,0.424,,,,,,0.518,0.536,0.493,0.519,0.495,0.732,0.813,0.665,0.88,0.79
